How the values were obtained:
GSK3A = target: T1, GSK3A (Homo sapiens, UniProt P49840); assay: NanoBRET cellular target engagement assay, Nanoluc-GSK3A in HEK293 cells; type: cell-based; conditions: NanoBRET GSK3α IC50, HEK293 cells, tracer K-8, 2 hours, 37° C
T1 construct: expressed in transfected cells

human GSK3α = target: T2, human GSK3α (Homo sapiens, UniProt P49840); assay: In vitro enzymatic activity assay, GSK3α; type: biochemical; conditions: 1.0 mM ATP, 1.0 μM peptide substrate, 120 min, 25° C, read-out: Enzyme GSK3α (IC50)
T2 construct: Full length human GSK3α or GSK3B expressed as N-terminal GST fusion proteins; GST (N); purchased Carna Biosciences (Japan); host or cells: baculovirus host
T2 sequence (P49840 whole entry, the tested form may be a part): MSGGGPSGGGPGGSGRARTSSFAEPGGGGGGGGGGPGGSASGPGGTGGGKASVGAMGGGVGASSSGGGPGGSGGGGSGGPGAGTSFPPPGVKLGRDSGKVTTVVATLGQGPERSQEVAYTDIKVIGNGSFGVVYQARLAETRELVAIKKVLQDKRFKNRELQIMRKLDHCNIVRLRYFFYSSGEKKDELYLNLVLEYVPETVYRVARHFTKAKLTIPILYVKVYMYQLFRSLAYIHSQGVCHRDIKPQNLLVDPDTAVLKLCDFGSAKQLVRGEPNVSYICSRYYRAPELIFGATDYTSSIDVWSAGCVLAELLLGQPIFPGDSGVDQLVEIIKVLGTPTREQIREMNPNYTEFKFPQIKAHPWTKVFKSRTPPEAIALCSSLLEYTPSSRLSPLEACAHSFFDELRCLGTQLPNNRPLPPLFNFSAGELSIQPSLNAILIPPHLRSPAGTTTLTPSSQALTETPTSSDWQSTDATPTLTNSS

GSK3B [1] = target: T3, GSK3B (Homo sapiens, UniProt P49841); assay: In vitro enzymatic activity assay, GSK3β; type: biochemical; set-up: Full length human GSK3α or GSK3B expressed as N-terminal GST fusion proteins; GST (N); purchased Carna Biosciences (Japan); host or cells: baculovirus host; conditions: 1.0 mM ATP, 1.0 μM peptide substrate, 120 min, 25° C, read-out: Enzyme GSK3β (IC50)
T3 sequence (P49841 whole entry, the tested form may be a part): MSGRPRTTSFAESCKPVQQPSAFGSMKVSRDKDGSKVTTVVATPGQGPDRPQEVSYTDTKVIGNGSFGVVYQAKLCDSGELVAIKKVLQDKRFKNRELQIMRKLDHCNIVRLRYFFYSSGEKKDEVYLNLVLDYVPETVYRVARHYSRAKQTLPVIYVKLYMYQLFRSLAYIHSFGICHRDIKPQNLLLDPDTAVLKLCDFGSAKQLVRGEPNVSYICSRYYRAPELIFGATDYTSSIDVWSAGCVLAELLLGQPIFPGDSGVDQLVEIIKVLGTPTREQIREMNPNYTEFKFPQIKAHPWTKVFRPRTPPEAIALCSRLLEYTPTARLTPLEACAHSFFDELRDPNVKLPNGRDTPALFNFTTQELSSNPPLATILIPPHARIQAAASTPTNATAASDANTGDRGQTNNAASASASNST

GSK3B [2] = target: T3, GSK3B; assay: NanoBRET cellular target engagement assay, Nanoluc-GSK3B in HEK293 cells; type: cell-based; set-up: expressed in transfected cells; conditions: NanoBRET GSK3β IC50, HEK293 cells, tracer K-8, 2 hours, 37° C

T1 sequence (P49840 whole entry): as the sequence (P49840 whole entry, the tested form may be a part) above

| SMILES | IC50 (GSK3A) [nM] | IC50 (human GSK3α) [nM] | IC50 (GSK3B [1]) [nM] | IC50 (GSK3B [2]) [nM] |
| --- | --- | --- | --- | --- |
| COc1cc(Cl)c(-n2cnc(N)c(C(=O)Nc3cnnc(C4CCCCN4)c3)c2=O)c(Cl)c1 (single isomer, unassigned) [Example 172, (R)-4-amino-1-(2,6-dichloro-4-methoxyphenyl)-6-oxo-N-(6-(piperidin-2-yl)pyridazin-4-yl)-1,6-dihydropyrimidine-5-carboxamide or (S)-4-amino-1-(2,6-dichloro-4-methoxyphenyl)-6-oxo-N-(6-(piperidin-2-yl)pyridazin-4-yl)-1,6-dihydropyrimidine-5-carboxamide] | 3.5 | 6.3 | 260 | 98.8 |
| CO[C@H](C)c1cc(C)c(-n2cnc(N)c(C(=O)Nc3cncc([C@@H](C)N)c3)c2=O)c(C)c1 (single isomer, unassigned) [Example 174] | 8.7 | 28 | 705 | 560 |
| CO[C@H](C)c1cc(C)c(-n2cnc(N)c(C(=O)Nc3cncc([C@@H](C)N)c3)c2=O)c(C)c1 (single isomer, unassigned) [Example 175] | 8.1 | 32.6 | 803 | 581 |
| Cc1cc([C@@H](C)F)cc(C)c1-n1cnc(N)c(C(=O)Nc2cncc([C@H]3CCCCN3)c2)c1=O (single isomer, unassigned) [Example 184, 4-amino-1-(4-((R)-1-fluoroethyl)-2,6-dimethylphenyl)-6-oxo-N-(5-((R)-piperidin-2-yl)pyridin-3-yl)-1,6-dihydropyrimidine-5-carboxamide or 4-amino-1-(4-((S)-1-fluoroethyl)-2,6-dimethylphenyl)-6-oxo-N-(5-((R)-piperidin-2-yl)pyridin-3-yl)-1,6-dihydropyrimidine-5-carboxamide] | 2.1 | 3.9 | 175 | 167 |
| Cc1cc([C@@H](C)F)cc(C)c1-n1cnc(N)c(C(=O)Nc2cncc([C@H]3CCCCN3)c2)c1=O (single isomer, unassigned) [Example 185, 4-amino-1-(4-((R)-1-fluoroethyl)-2,6-dimethylphenyl)-6-oxo-N-(5-((R)-piperidin-2-yl)pyridin-3-yl)-1,6-dihydropyrimidine-5-carboxamide or 4-amino-1-(4-((S)-1-fluoroethyl)-2,6-dimethylphenyl)-6-oxo-N-(5-((R)-piperidin-2-yl)pyridin-3-yl)-1,6-dihydropyrimidine-5-carboxamide] | 1.6 | 3.5 | 148 | 128 |
| Nc1ncn(-c2c(Cl)cccc2Cl)c(=O)c1C(=O)Nc1cccc([C@@H]2CNC(=O)CN2)c1 (single isomer, unassigned) [Example 189, (R)-4-amino-1-(2,6-dichlorophenyl)-6-oxo-N-(3-(5-oxopiperazin-2-yl)phenyl)-1,6-dihydropyrimidine-5-carboxamide or (S)-4-amino-1-(2,6-dichlorophenyl)-6-oxo-N-(3-(5-oxopiperazin-2-yl)phenyl)-1,6-dihydropyrimidine-5-carboxamide] | 69.4 | 133 | 2160 | 4580 |
| Nc1ncn(-c2c(Cl)cccc2Cl)c(=O)c1C(=O)Nc1cccc([C@@H]2CNC(=O)CN2)c1 (single isomer, unassigned) [Example 190, (R)-4-amino-1-(2,6-dichlorophenyl)-6-oxo-N-(3-(5-oxopiperazin-2-yl)phenyl)-1,6-dihydropyrimidine-5-carboxamide or (S)-4-amino-1-(2,6-dichlorophenyl)-6-oxo-N-(3-(5-oxopiperazin-2-yl)phenyl)-1,6-dihydropyrimidine-5-carboxamide] | 26.7 | 37.6 | 971 | 3300 |
| Nc1ncn(-c2c(Cl)cccc2Cl)c(=O)c1C(=O)Nc1cccc([C@H]2CC[C@H](CO)N2)c1 (single isomer, unassigned) [Example 191, 4-amino-1-(2,6-dichlorophenyl)-N-(3-((2R,5R)-5-(hydroxymethyl)pyrrolidin-2-yl)phenyl)-6-oxo-1,6-dihydropyrimidine-5-carboxamide or 4-amino-1-(2,6-dichlorophenyl)-N-(3-((2S,5S)-5-(hydroxymethyl)pyrrolidin-2-yl)phenyl)-6-oxo-1,6-dihydropyrimidine-5-carboxamide] | 4.7 | 5.7 | 230 | 304 |
| CN[C@@H](C)c1cncc(NC(=O)c2c(N)ncn(-c3c(Cl)cc(OC4CC4)cc3Cl)c2=O)c1 (single isomer, unassigned) [Example 195, (S)-4-amino-1-(2,6-dichloro-4-cyclopropoxyphenyl)-N-(5-(1-(methylamino)ethyl)pyridin-3-yl)-6-oxo-1,6-dihydropyrimidine-5-carboxamide or (R)-4-amino-1-(2,6-dichloro-4-cyclopropoxyphenyl)-N-(5-(1-(methylamino)ethyl)pyridin-3-yl)-6-oxo-1,6-dihydropyrimidine-5-carboxamide] | 5.4 | 11 | 632 | 462 |
| COc1cc(Cl)c(-n2cnc(N)c(C(=O)Nc3cncc([C@@H](N)C(F)F)c3)c2=O)c(Cl)c1 (single isomer, unassigned) [Example 204, (R)-4-amino-N-(5-(1-amino-2,2-difluoroethyl)pyridin-3-yl)-1-(2,6-dichloro-4-methoxyphenyl)-6-oxo-1,6-dihydropyrimidine-5-carboxamide or (S)-4-amino-N-(5-(1-amino-2,2-difluoroethyl)pyridin-3-yl)-1-(2,6-dichloro-4-methoxyphenyl)-6-oxo-1,6-dihydropyrimidine-5-carboxamide] | 8.8 | 13.5 | 706 | 782 |

Continued by falling IC50 (GSK3A), values first:

| IC50 (GSK3A) [nM] | IC50 (human GSK3α) [nM] | IC50 (GSK3B [1]) [nM] | IC50 (GSK3B [2]) [nM] | SMILES |
| --- | --- | --- | --- | --- |
| 7.2 | 15 | 850 | 403 | COCC[C@@H](N)c1cncc(NC(=O)c2c(N)ncn(-c3c(Cl)cccc3Cl)c2=O)c1 (single isomer, unassigned) [Example 197, (R)-4-amino-N-(5-(1-amino-3-methoxypropyl)pyridin-3-yl)-1-(2,6-dichlorophenyl)-6-oxo-1,6-dihydropyrimidine-5-carboxamide or (S)-4-amino-N-(5-(1-amino-3-methoxypropyl)pyridin-3-yl)-1-(2,6-dichlorophenyl)-6-oxo-1,6-dihydropyrimidine-5-carboxamide] |
| 5.6 | 8.4 | 357 | 421 | COc1cc(Cl)c(-n2cnc(N)c(C(=O)Nc3cncc([C@]4(N)CCCOC4)c3)c2=O)c(Cl)c1 (single isomer, unassigned) [Example 187, (R)-4-amino-N-(5-(3-aminotetrahydro-2H-pyran-3-yl)pyridin-3-yl)-1-(2,6-dichloro-4-methoxyphenyl)-6-oxo-1,6-dihydropyrimidine-5-carboxamide or (S)-4-amino-N-(5-(3-aminotetrahydro-2H-pyran-3-yl)pyridin-3-yl)-1-(2,6-dichloro-4-methoxyphenyl)-6-oxo-1,6-dihydropyrimidine-5-carboxamide] |
| 4.7 | 6.4 | 298 | 322 | CC1CCC(c2cccc(NC(=O)c3c(N)ncn(-c4c(Cl)cccc4Cl)c3=O)c2)N1 (single isomer, unassigned) [Example 180, 4-amino-1-(2,6-dichlorophenyl)-N-(3-((2R,5R)-5-methylpyrrolidin-2-yl)phenyl)-6-oxo-1,6-dihydropyrimidine-5-carboxamide or 4-amino-1-(2,6-dichlorophenyl)-N-(3-((2S,5S)-5-methylpyrrolidin-2-yl)phenyl)-6-oxo-1,6-dihydropyrimidine-5-carboxamide] |
| 3.9 | 10.4 | 460 | 345 | COc1cc(Cl)c(-n2cnc(N)c(C(=O)Nc3cncc([C@]4(N)CCCOC4)c3)c2=O)c(Cl)c1 (single isomer, unassigned) [Example 188, R)-4-amino-N-(5-(3-aminotetrahydro-2H-pyran-3-yl)pyridin-3-yl)-1-(2,6-dichloro-4-methoxyphenyl)-6-oxo-1,6-dihydropyrimidine-5-carboxamide or (S)-4-amino-N-(5-(3-aminotetrahydro-2H-pyran-3-yl)pyridin-3-yl)-1-(2,6-dichloro-4-methoxyphenyl)-6-oxo-1,6-dihydropyrimidine-5-carboxamide] |
| 2.8 | 4 | 200 | 283 | CCOC[C@@H](N)c1cncc(NC(=O)c2c(N)ncn(-c3c(C)cc(COC)cc3C)c2=O)c1 (single isomer, unassigned) [Example 177, (S)-4-amino-N-(5-(1-amino-2-ethoxyethyl)pyridin-3-yl)-1-(4-(methoxymethyl)-2,6-dimethylphenyl)-6-oxo-1,6-dihydropyrimidine-5-carboxamide or (R)-4-amino-N-(5-(1-amino-2-ethoxyethyl)pyridin-3-yl)-1-(4-(methoxymethyl)-2,6-dimethylphenyl)-6-oxo-1,6-dihydropyrimidine-5-carboxamide] |
